Results: US6737383B1, “Herbicidal oxadiazolidines” (priority 1999, dated 2004)

Tests used:
bedstraw = test: Test B pre/postemergence bedstraw; type: in vivo, Galium aparine
Summary of the method: (§1)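 Herbicidal effect was estimated by eye on a ten-point control scale after plants spent twelve to sixteen days in a greenhouse following soil or foliar treatment. Foliar sprays targeted plants at one to four leaves; all doses were formulated in a non-phytotoxic solvent with surfactant.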

blackgrass = test: Test B pre/postemergence blackgrass; type: in vivo, Alopecurus myosuroides
Summary of the method: as §1

surinam grass = test: Test B pre/postemergence surinam grass; type: in vivo, Brachiaria decumbens
Summary of the method: as §1

cocklebur = test: Test B pre/postemergence cocklebur; type: in vivo, Xanthium strumarium
Summary of the method: as §1

corn = test: Test B pre/postemergence corn; type: in vivo, Zea mays
Summary of the method: as §1

crabgrass = test: Test B pre/postemergence crabgrass; type: in vivo, Digitaria sanguinalis
Summary of the method: as §1

soybean = test: Test B pre/postemergence soybean; type: in vivo, Glycine max
Summary of the method: as §1

sugar beet = test: Test B pre/postemergence sugar beet; type: in vivo, Beta vulgaris
Summary of the method: as §1

velvetleaf = test: Test B pre/postemergence velvetleaf; type: in vivo, Abutilon theophrasti
Summary of the method: as §1

wheat = test: Test B pre/postemergence wheat; type: in vivo, Triticum aestivum
Summary of the method: as §1

wild oat = test: Test B pre/postemergence wild oat; type: in vivo, Avena fatua
Summary of the method: as §1

purple nutsedge = test: Test B pre/postemergence purple nutsedge; type: in vivo, Cyperus rotundus
Summary of the method: as §1

rice = test: Test B flood test rice; type: in vivo, Oryza sativa
Summary of the method: (§2)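 Each value is a visual injury score relative to controls, with 10 meaning complete control and 0 no effect. Evaluation took place twelve to sixteen days after the 2-leaf-stage plants were treated and kept in the greenhouse.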

smallflower flatsedge = test: Test B flood test smallflower flatsedge; type: in vivo, Cyperus difformis
Summary of the method: as §2

duck salad = test: Test B flood test duck salad; type: in vivo, Heteranthera limosa
Summary of the method: as §2

bamyardgrass = test: Test B flood test barnyardgrass; type: in vivo, Echinochloa crus-galli
Summary of the method: as §2

[1] = Postemergence, Rate 62 g/ha, scale 0 to 10, 0 is no effect, 10 is complete control
[2] = Postemergence, Rate 250 g/ha, scale 0 to 10, 0 no effect, 10 complete control
[3] = Preemergence, Rate 62 g/ha, scale 0 to 10 (0 no effect, 10 complete control)
[4] = Preemergence, Rate 125 g/ha, scale 0 to 10 (0 no effect, 10 complete control)
[5] = Preemergence, Rate 250 g/ha, scale of 0 to 10 where 0 is no effect and 10 is complete control
[6] = Preemergence, Rate 500 g/ha, scale 0 (no effect) to 10 (complete control)
[7] = Rate 125 g/ha, Postemergence, scale 0 to 10, 0 no effect, 10 complete control
[8] = Rate 500 g/ha, Postemergence, scale 0 to 10, 0 no effect, 10 complete control
[9] = Rate 125 g/ha, Postemergence section (flood test species), scale 0 to 10, 0 no effect, 10 complete control
[10] = Rate 500 g/ha, listed under Postemergence (flood test species), scale 0 to 10, 0 no effect, 10 complete control
[11] = flood test, listed under Postemergence, Rate 250 g/ha, scale 0 to 10, 0 no effect, 10 complete control

COc1cccc(C)c1-n1c(=O)on(C(=O)N(c2ccccc2)C(C)C)c1=O [Compound 73]
6: Crabgrass plant response rating (crabgrass; [8]) | Wild oats plant response rating (wild oat; [8])
4: Velvetleaf plant response rating (velvetleaf; [2])
0: Bedstraw plant response rating (bedstraw; [1]) | Bedstraw plant response rating (bedstraw; [3]) | Plant response rating, Bedstraw (bedstraw; [4]) | Plant response rating, Bedstraw (bedstraw; [5]) | Bedstraw plant response rating (bedstraw; [6]) | Bedstraw plant response rating (bedstraw; [7]) | Blackgrass plant response rating (blackgrass; [1]) | Blackgrass plant response rating (blackgrass; [2]) | Blackgrass plant response rating (blackgrass; [3]) | Plant response rating, Blackgrass (blackgrass; [4]) | Plant response rating, Blackgrass (blackgrass; [5]) | Blackgrass plant response rating (blackgrass; [6]) | Blackgrass plant response rating (blackgrass; [7]) | B. signalgrass plant response rating (surinam grass; [1]) | B. signalgrass plant response rating (surinam grass; [2]) | B. signalgrass plant response rating (surinam grass; [3]) | Plant response rating, B. signalgrass (surinam grass; [4]) | Plant response rating, B. signalgrass (surinam grass; [5]) | B. signalgrass plant response rating (surinam grass; [6]) | B. signalgrass plant response rating (surinam grass; [7]) | Cocklebur plant response rating (cocklebur; [1]) | Cocklebur plant response rating (cocklebur; [2]) | Cocklebur plant response rating (cocklebur; [3]) | Plant response rating, Cocklebur (cocklebur; [4]) | Plant response rating, Cocklebur (cocklebur; [5]) | Cocklebur plant response rating (cocklebur; [6]) | Cocklebur plant response rating (cocklebur; [7]) | Corn plant response rating (corn; [1]) | Corn plant response rating (corn; [2]) | Corn plant response rating (corn; [3]) | Plant response rating, Corn (corn; [4]) | Plant response rating, Corn (corn; [5]) | Corn plant response rating (corn; [6]) | Corn plant response rating (corn; [7]) | Corn plant response rating (corn; [8]) | Crabgrass plant response rating (crabgrass; [1]) | Crabgrass plant response rating (crabgrass; [7]) | Soybean plant response rating (soybean; [1]) | Soybean plant response rating (soybean; [3]) | Plant response rating, Soybean (soybean; [4]) | Plant response rating, Soybean (soybean; [5]) | Soybean plant response rating (soybean; [6]) | Soybean plant response rating (soybean; [7]) | Sugarbeets plant response rating (sugar beet; [1]) | Sugarbeets plant response rating (sugar beet; [2]) | Sugarbeets plant response rating (sugar beet; [3]) | Plant response rating, Sugarbeets (sugar beet; [4]) | Plant response rating, Sugarbeets (sugar beet; [5]) | Sugarbeets plant response rating (sugar beet; [6]) | Sugarbeets plant response rating (sugar beet; [7]) | Sugarbeets plant response rating (sugar beet; [8]) | Velvetleaf plant response rating (velvetleaf; [1]) | Velvetleaf plant response rating (velvetleaf; [3]) | Plant response rating, Velvetleaf (velvetleaf; [4]) | Plant response rating, Velvetleaf (velvetleaf; [5]) | Velvetleaf plant response rating (velvetleaf; [6]) | Wheat plant response rating (wheat; [1]) | Wheat plant response rating (wheat; [2]) | Wheat plant response rating (wheat; [3]) | Plant response rating, Wheat (wheat; [4]) | Plant response rating, Wheat (wheat; [5]) | Wheat plant response rating (wheat; [6]) | Wheat plant response rating (wheat; [7]) | Wild oats plant response rating (wild oat; [1]) | Wild oats plant response rating (wild oat; [3]) | Plant response rating, Wild oats (wild oat; [4]) | Plant response rating, Wild oats (wild oat; [5]) | Wild oats plant response rating (wild oat; [6]) | Wild oats plant response rating (wild oat; [7]) | Nutsedge plant response rating (purple nutsedge; [1]) | Nutsedge plant response rating (purple nutsedge; [2]) | Nutsedge plant response rating (purple nutsedge; [3]) | Plant response rating, Nutsedge (purple nutsedge; [4]) | Plant response rating, Nutsedge (purple nutsedge; [5]) | Nutsedge plant response rating (purple nutsedge; [6]) | Nutsedge plant response rating (purple nutsedge; [7]) | Nutsedge plant response rating (purple nutsedge; [8]) | Rice plant response rating (rice; [1]) | Rice plant response rating (rice; [9]) | Rice plant response rating (rice; [10]) | Rice plant response rating (rice; [11]) | S. Flatsedge plant response rating (smallflower flatsedge; [1]) | S. Flatsedge plant response rating (smallflower flatsedge; [9]) | S. Flatsedge plant response rating (smallflower flatsedge; [10]) | S. Flatsedge plant response rating (smallflower flatsedge; [11]) | Ducksalad plant response rating (duck salad; [1]) | Ducksalad plant response rating (duck salad; [9]) | Ducksalad plant response rating (duck salad; [10]) | Ducksalad plant response rating (duck salad; [11]) | Barnyardgrass plant response rating (bamyardgrass; [1]) | Barnyardgrass plant response rating (bamyardgrass; [9]) | Barnyardgrass plant response rating (bamyardgrass; [10]) | Barnyardgrass plant response rating (bamyardgrass; [11])
8: Plant response rating, Crabgrass (crabgrass; [5])
2: Blackgrass plant response rating (blackgrass; [8]) | Cocklebur plant response rating (cocklebur; [8]) | Crabgrass plant response rating (crabgrass; [2]) | Wheat plant response rating (wheat; [8]) | Wild oats plant response rating (wild oat; [2])
7: Bedstraw plant response rating (bedstraw; [2]) | Bedstraw plant response rating (bedstraw; [8])
9: Crabgrass plant response rating (crabgrass; [6])
1: Crabgrass plant response rating (crabgrass; [3])
5: Plant response rating, Crabgrass (crabgrass; [4]) | Velvetleaf plant response rating (velvetleaf; [8])
3: B. signalgrass plant response rating (surinam grass; Rate 500 g/ha, Postemergence, scale of 0 to 10 where 0 is no effect and 10 is complete control) | Soybean plant response rating (soybean; [2]) | Soybean plant response rating (soybean; [8]) | Velvetleaf plant response rating (velvetleaf; [7])
